Assay results as given in patent US20260355196A1, “INHIBITORS AND DEGRADERS OF PIP4K PROTEIN” (Larkspur Biosciences, Inc., priority 2023, published 2026).

Biological target: T1, PIP4K2C (Homo sapiens, UniProt Q8TBX8)
T1 sequence (Q8TBX8 1-421): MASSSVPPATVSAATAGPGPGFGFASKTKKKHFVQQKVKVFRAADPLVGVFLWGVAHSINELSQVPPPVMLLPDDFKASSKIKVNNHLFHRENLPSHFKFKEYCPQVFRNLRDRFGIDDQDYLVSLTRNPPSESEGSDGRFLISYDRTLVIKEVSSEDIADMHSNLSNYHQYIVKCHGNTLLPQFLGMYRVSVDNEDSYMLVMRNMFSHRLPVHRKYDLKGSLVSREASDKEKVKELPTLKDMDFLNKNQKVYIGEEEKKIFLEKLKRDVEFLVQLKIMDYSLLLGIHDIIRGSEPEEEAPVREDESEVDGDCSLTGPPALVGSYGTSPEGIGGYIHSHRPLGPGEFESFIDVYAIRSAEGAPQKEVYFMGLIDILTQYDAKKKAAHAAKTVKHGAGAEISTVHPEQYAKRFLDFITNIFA
Experiment: Enzyme Binding Assay (KINOMEscan): active site-directed competition binding to an immobilized ligand
Parameters: purchased Eurofins DiscoverX, San Diego, CA 87-0007-1094
Details: 11-point dose response, duplicate, top concentration 5 micromolar; read-out: Pip4k2c Kd: IC50
In short: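 IC50 values come from Hill-equation fits (Levenberg-Marquardt) to 11-point duplicate titrations starting at 5 micromolar. Read-out is competition of compound with an immobilized ligand for the kinase active site.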

IC50, < 500 nM:
CC(=O)N1CCC(Nc2ncc(F)c(-c3cccc(N4CCOC4=O)c3)n2)CC1 [Compound 226, 3-(3-(2-((1-acetylpiperidin-4-yl)amino)-5-fluoropyrimidin-4-yl)phenyl)oxazolidin-2-one]
CC(=O)N1CCC(Nc2ncc(F)c(-c3cccc(N4CCC(O)C4=O)c3)n2)CC1 (stereo not drawn) [Compound 228, 1-(3-(2-((1-acetylpiperidin-4-yl)amino)-5-fluoropyrimidin-4-yl)phenyl)-3-hydroxypyrrolidin-2-one]
NC(=O)[C@H]1CC[C@H](Nc2ncc(F)c(-c3cccc(-c4ccc(=O)[nH]c4)c3)n2)CC1 [Compound 229, trans-4-((5-fluoro-4-(3-(6-oxo-1,6-dihydropyridin-3-yl)phenyl)pyrimidin-2-yl)amino)cyclohexane-1-carboxamide]
CC(=O)N1CCC(Nc2ncc(F)c(-c3cccc(N4C[C@@H](O)CC4=O)c3)n2)CC1 [Compound 230, (4S)-1-[3-[2-[(1-acetyl-4-piperidyl)amino]-5-fluoro-pyrimidin-4-yl]phenyl]-4-hydroxy-pyrrolidin-2-one]
CC(=O)N[C@H]1CC[C@H](Nc2ncc(F)c(-c3ccnc(C4(O)CCC4)c3)n2)CC1 [Compound 231, trans-N-(4-((5-fluoro-4-(2-(1-hydroxycyclobutyl)pyridin-4-yl)pyrimidin-2-yl)amino)cyclohexyl)acetamide]
CC(=O)N1CCC(Nc2ncc(F)c(-c3ccnc(C4(O)CCC4)c3)n2)CC1 [Compound 232, 1-(4-((5-fluoro-4-(2-(1-hydroxycyclobutyl)pyridin-4-yl)pyrimidin-2-yl)amino)piperidin-1-yl)ethan-1-one]
CC(=O)N[C@H]1CC[C@H](Nc2ncc(F)c(-c3cccc(N4CCOC4=O)c3)n2)CC1 [Compound 233, trans-N-(4-((5-fluoro-4-(3-(2-oxooxazolidin-3-yl)phenyl)pyrimidin-2-yl)amino)cyclohexyl)acetamide]
CC(=O)N[C@H]1CC[C@H](Nc2ncc(F)c(-c3cccc(-n4cc(C(F)(F)F)ccc4=O)c3)n2)CC1 [Compound 234, trans-N-(4-((5-fluoro-4-(3-(2-oxo-5-(trifluoromethyl)pyridin-1 (2H)-yl)phenyl)pyrimidin-2-yl)amino)cyclohexyl)acetamide]
CC(=O)N[C@H]1CC[C@H](Nc2ncc(F)c(-c3cccc(-n4cc(C)ccc4=O)c3)n2)CC1 [Compound 235, trans-N-(4-((5-fluoro-4-(3-(5-methyl-2-oxopyridin-1 (2H)-yl)phenyl)pyrimidin-2-yl)amino)cyclohexyl)acetamide]
NC(=O)[C@H]1CC[C@H](Nc2ncc(F)c(-c3cccc(N4CCCOC4=O)c3)n2)CC1 [Compound 236, trans-4-((5-fluoro-4-(3-(2-oxo-1,3-oxazinan-3-yl)phenyl)pyrimidin-2-yl)amino)cyclohexane-1-carboxamide]
CC(=O)N1CCC(Nc2ncc(F)c(-c3cccc(N4C[C@H](O)CC4=O)c3)n2)CC1 [Compound 237, (4R)-1-[3-[2-[(1-acetyl-4-piperidyl)amino]-5-fluoro-pyrimidin-4-yl]phenyl]-4-hydroxy-pyrrolidin-2-one]
CC(=O)N[C@H]1CC[C@H](Nc2ncc(F)c(-c3cccc(-n4ccccc4=O)c3)n2)CC1 [Compound 238, trans-N-[4-[[5-fluoro-4-[3-(2-oxo-1-pyridyl)phenyl]pyrimidin-2-yl]amino]cyclohexyl]acetamide]
CC(=O)N1CCC(Nc2ncc(F)c(-c3cccc(-c4ncc[nH]4)c3)n2)CC1 [Compound 239, 1-(4-((4-(3-(1H-imidazol-2-yl)phenyl)-5-fluoropyrimidin-2-yl)amino)piperidin-1-yl)ethan-1-one]
NC(=O)[C@H]1CC[C@H](Nc2ncc(F)c(-c3cccc(-n4ccccc4=O)c3)n2)CC1 [Compound 240, trans-(1r,4r)-4-((5-fluoro-4-(3-(2-oxopyridin-1 (2H)-yl)phenyl)pyrimidin-2-yl)amino)cyclohexane-1-carboxamide]
CC(=O)N[C@H]1CC[C@H](Nc2ncc(F)c(-c3ccnc(C(C)(C)O)c3)n2)CC1 [Compound 241, trans-N-(4-((5-fluoro-4-(2-(2-hydroxypropan-2-yl)pyridin-4-yl)pyrimidin-2-yl)amino)cyclohexyl)acetamide]
CC(C)(O)c1cc(-c2nc(N[C@H]3CC[C@H](C(N)=O)CC3)ncc2F)ccn1 [Compound 242, trans-4-((5-fluoro-4-(2-(2-hydroxypropan-2-yl)pyridin-4-yl)pyrimidin-2-yl)amino)cyclohexane-1-carboxamide]
NC(=O)[C@H]1CC[C@H](Nc2ncc(F)c(-c3ccnc(C4(O)CCC4)c3)n2)CC1 [Compound 243, trans-4-((5-fluoro-4-(2-(1-hydroxycyclobutyl)pyridin-4-yl)pyrimidin-2-yl)amino)cyclohexane-1-carboxamide]
NC(=O)[C@@H]1CCC[C@H](Nc2ncc(F)c(-c3ccnc(C4(O)CCC4)c3)n2)C1 [Compound 244, (1R,3S)-3-((5-fluoro-4-(2-(1-hydroxycyclobutyl)pyridin-4-yl)pyrimidin-2-yl)amino)cyclohexane-1-carboxamide]
NC(=O)[C@H]1CC[C@H](Nc2ncc(F)c(-c3cccc(N4CCOC4=O)c3)n2)CC1 [Compound 245, trans-4-((5-fluoro-4-(3-(2-oxooxazolidin-3-yl)phenyl)pyrimidin-2-yl)amino)cyclohexane-1-carboxamide]
NC(=O)[C@H]1CC[C@H](Nc2ncc(F)c(-c3cccc(-n4cc(C(F)(F)F)ccc4=O)c3)n2)CC1 [Compound 246, trans-4-((5-fluoro-4-(3-(2-oxo-5-(trifluoromethyl)pyridin-1 (2H)-yl)phenyl)pyrimidin-2-yl)amino)cyclohexane-1-carboxamide]
Cc1ccc(=O)n(-c2cccc(-c3nc(N[C@H]4CC[C@H](C(N)=O)CC4)ncc3F)c2)c1 [Compound 247, trans-4-((5-fluoro-4-(3-(5-methyl-2-oxopyridin-1 (2H)-yl)phenyl)pyrimidin-2-yl)amino)cyclohexane-1-carboxamide]
CC(=O)N[C@H]1CC[C@H](Nc2ncc(F)c(-c3cccc(N4CCCC4=O)c3)n2)CC1 [Compound 248, trans-N-(4-((5-fluoro-4-(3-(2-oxopyrrolidin-1-yl)phenyl)pyrimidin-2-yl)amino)cyclohexyl)acetamide]
NC(=O)[C@H]1CC[C@H](Nc2ncc(F)c(-c3cccc(N4CCCC4=O)c3)n2)CC1 [Compound 249, trans-4-((5-fluoro-4-(3-(2-oxopyrrolidin-1-yl)phenyl)pyrimidin-2-yl)amino)cyclohexane-1-carboxamide]
CC(=O)N[C@H]1CC[C@H](Nc2ncc(F)c(-c3cccc(N4CCC(O)CC4)c3)n2)CC1 [Compound 250, trans-N-(4-((5-fluoro-4-(3-(4-hydroxypiperidin-1-yl)phenyl)pyrimidin-2-yl)amino)cyclohexyl)acetamide]
NC(=O)[C@H]1CC[C@H](Nc2ncc(F)c(-c3cccc(N4CCC(O)CC4)c3)n2)CC1 [Compound 251, trans-4-((5-fluoro-4-(3-(4-hydroxypiperidin-1-yl)phenyl)pyrimidin-2-yl)amino)cyclohexane-1-carboxamide]
CC(=O)N[C@H]1CC[C@H](Nc2ncc(F)c(-c3cccc(C(=O)N4CC[C@H](O)C4)c3)n2)CC1 [Compound 252, trans-N-[4-[[5-fluoro-4-[3-[(3S)-3-hydroxypyrrolidine-1-carbonyl]phenyl]pyrimidin-2-yl]amino]cyclohexyl]acetamide]
CC(=O)N[C@H]1CC[C@H](Nc2ncc(F)c(-c3ccnc(N4CCOC4=O)c3)n2)CC1 [Compound 253, trans-N-((1r,4r)-4-((5-fluoro-4-(2-(2-oxooxazolidin-3-yl)pyridin-4-yl)pyrimidin-2-yl)amino)cyclohexyl)acetamide]
NC(=O)[C@H]1CC[C@H](Nc2ncc(F)c(-c3cccc(-c4ccc[nH]c4=O)c3)n2)CC1 [Compound 254, trans-(1r,4r)-4-((5-fluoro-4-(3-(2-oxo-1,2-dihydropyridin-3-yl)phenyl)pyrimidin-2-yl)amino)cyclohexane-1-carboxamide]
CC(=O)N[C@H]1CC[C@H](Nc2ncc(F)c(-c3cccc(-c4ccc[nH]c4=O)c3)n2)CC1 [Compound 255, N-(trans-4-((5-fluoro-4-(3-(2-oxo-1,2-dihydropyridin-3-yl)phenyl)pyrimidin-2-yl)amino)cyclohexyl)acetamide]
CC(=O)N[C@H]1CC[C@H](Nc2ncc(F)c(-c3cccc(N4CCCCC4=O)c3)n2)CC1 [Compound 256, trans-N-(4-((5-fluoro-4-(3-(2-oxopiperidin-1-yl)phenyl)pyrimidin-2-yl)amino)cyclohexyl)acetamide]
